We go through one compound from publication PMC11271513, “Pseudoirreversible inhibition elicits persistent efficacy of a sphingosine 1-phosphate receptor 1 antagonist” (Nature Communications, 2024).

Assay [1] deals with T1, Sphingosine 1-phosphate receptor 1 (S1PR1) (Homo sapiens, UniProt P21453, M124V).
T1 construct: HiBiT-tagged human S1PR1 Val124 mutant in HEK293 cells
In words: functional reversibility assays (internalization, cAMP). Format: cell-based.

Assay [2] deals with T2, Sphingosine 1-phosphate receptor 1 (S1PR1) (Homo sapiens, UniProt P21453).
T2 construct: human S1PR1 in HEK293 cell membranes
In words: GTP binding assay; also functional reversibility and washout dissociation half-life […] h. Format: biochemical.

T2 sequence (P21453 whole entry): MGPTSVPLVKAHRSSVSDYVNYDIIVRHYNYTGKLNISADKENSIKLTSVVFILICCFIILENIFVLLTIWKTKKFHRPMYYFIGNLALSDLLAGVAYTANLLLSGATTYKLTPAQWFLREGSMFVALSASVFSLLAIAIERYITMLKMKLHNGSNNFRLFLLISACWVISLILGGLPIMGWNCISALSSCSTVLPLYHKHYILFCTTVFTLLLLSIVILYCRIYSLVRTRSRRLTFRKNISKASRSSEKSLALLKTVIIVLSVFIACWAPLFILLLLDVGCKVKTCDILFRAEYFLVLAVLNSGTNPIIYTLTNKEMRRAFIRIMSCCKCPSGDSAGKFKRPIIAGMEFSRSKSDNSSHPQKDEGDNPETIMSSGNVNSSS
T1 sequence (P21453 whole entry M124V): as the sequence (P21453 whole entry) above, with M124V counted along it

As a reminder, the IC50 is the concentration needed to halve the response being measured. High values mean weaker potency, low ones greater potency. Turning to `CCN(c1ccc(Cl)c(C(F)(F)F)c1)C(C)c1ccc(C)c(CN2CC(C(=O)O)C2)c1` (racemic) [KSI-6666], in assay [1], the “functional reversibility assays (internalization, cAMP)” value is given as “in the Val124 mutant, pre-bound KSI-6666 was almost completely replaced by the added agonist”. The 50% inhibitory concentration (IC50) in assay [2] is 6.4 nM.
